Biological target: T1, recombinant human (rh) KLK5 protease (Homo sapiens, UniProt Q9Y337)
T1 construct: purchased R&D Systems 1108-SE
T1 sequence (Q9Y337 23-293): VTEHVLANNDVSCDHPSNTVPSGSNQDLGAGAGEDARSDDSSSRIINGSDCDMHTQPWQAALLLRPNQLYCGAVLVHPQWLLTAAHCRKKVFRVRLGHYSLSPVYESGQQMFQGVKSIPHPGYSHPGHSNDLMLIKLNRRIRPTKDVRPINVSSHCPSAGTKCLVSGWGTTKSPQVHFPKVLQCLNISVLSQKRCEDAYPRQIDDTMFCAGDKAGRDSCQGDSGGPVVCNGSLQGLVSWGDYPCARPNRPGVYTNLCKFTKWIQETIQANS
Assay: Enzymatic activity of Kallikrein 5 (KLK5), fluorogenic peptide substrate Boc-V-P-R-AMC
Type: biochemical
Protocol: The compound of Formula 1a was assayed for enzymatic activity of Kallikrein 5 (KLK5) as follows, and its activity compared to that of salicylic acid. The KLK5 activity of the compound of Formula 1a was calculated as a percentage of KLK5 activity relative to salicylic acid.
In the stratum corneum, skin's outermost layer, cell-to-cell cohesion depends primarily on proteins known as the corneodesmosomes. During skin remodeling and renewal dead cells are shed from the skin surface by the action of native proteases that break down the corneodesmosomes. […] To this end, the enzymatic activity of a member of the KLK family, recombinant human (rh) KLK5, was monitored following pre-incubation with actives and measuring the rate of peptide bond cleavage of a synthetic substrate.
Enzymatic activity of KLK5 was measured by incubating recombinant human (rh) KLK5 protease (R&D Systems, Cat No. 1108-SE) with a specific fluorogenic peptide substrate Boc-V-P-R-AMC (R&D Systems, Cat No. ES011). […] Increase in fluorescence reading indicates an increase in rhKLK5 activity. […] After 60 seconds of incubation, fluorescence was measured at 340 nm (Excitation wavelength) and 485 nm (Emission wavelength) every 1 minute for 7 minutes. Rate (kinetics) of enzyme activity was calculated as follows: Rate of enzyme activity=Change of fluorescent reading (after background correction)/Change of reaction time (min). […]

For `O=C(Oc1ccccc1C(=O)O)c1ccccc1O` [compound of Formula 1a], the “KLK5 activity as a percentage relative to salicylic acid (stimulator effect)” value (relative to salicylic acid, dimer tested at a concentration approximately half of that of salicylic acid, difference not significant) was “about 90%” and the “KLK5 stimulation (in words)” value (rhKLK5 enzymatic activity) was “potent stimulator of KLK5”.

From US9474702B2, “Cosmetic use of salicylic acid derivatives” (Avon Products, Inc., priority 2013, dated 2016)
